Experimental data from patent US20250114374A1, “BCL-2 INHIBITORS” (Newave Pharmaceutical Inc., priority 2021, published 2025).

Tested on: RS4; 11 with G101V mutation
Assay: In vitro anti-proliferation assay (ATPlite luminescence) in BCL-2-dependent ALL cell line RS4;11 with G101V mutation
Assay type: cell-based
Details: Homo sapiens, RS4-11, 72 h; read-out: RS411-G101V IC50
In short: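 RS4;11 G101V cells at about 1×10^4 per well were exposed to a range of compound concentrations for about 72 h in medium with 10% FBS. Cellular ATP was measured by ATPlite luminescence after lysis, and IC50 was derived from the dose-response.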

| IC50 | Structure (SMILES) |
| --- | --- |
| 58.1 nM | CC(C)Oc1ccccc1[C@@H]1CN(C2CCOCC2)CCN1C1CC2(CCN(c3ccc(C(=O)NS(=O)(=O)c4cc5c(c([N+](=O)[O-])c4)N[C@H](C4CCOCC4)CO5)c(N4c5cc6cc[nH]c6nc5O[C@H]5COCC[C@@H]54)c3)CC2)C1 [Example 182, 4-(2-((R)-2-(2-isopropoxyphenyl)-4-(tetrahydro-2H-pyran-4-yl)piperazin-1-yl)-7-azaspiro[3.5]nonan-7-yl)-N-(((R)-5-nitro-3-(tetrahydro-2H-pyran-4-yl)-3,4-dihydro-2H-benzo[b][1,4]oxazin-7-yl)sulfonyl)-2-((5aS,9aR)-6,7,9,9a-tetrahydro-1H-pyrano[3,4-b]pyrrolo[3′,2′:5,6]pyrido[3,2-e][1,4]oxazin-5(5aH)-yl)benzamide] |
| 3.19 nM | Cc1ccc(CN2CCN(C3CC4(CCN(c5ccc(C(=O)NS(=O)(=O)c6cc7c(c([N+](=O)[O-])c6)N[C@H](C6CCOCC6)CO7)c(N6c7cc8cc[nH]c8nc7O[C@H]7COCC[C@@H]76)c5)CC4)C3)[C@H](c3ccccc3OC(C)C)C2)cn1 [Example 254, 4-(2-((R)-2-(2-isopropoxyphenyl)-4-((6-methylpyridin-3-yl)methyl)piperazin-1-yl)-7-azaspiro[3.5]nonan-7-yl)-N-(((R)-5-nitro-3-(tetrahydro-2H-pyran-4-yl)-3,4-dihydro-2H-benzo[b][1,4]oxazin-7-yl)sulfonyl)-2-((5aS,9aR)-6,7,9,9a-tetrahydro-1H-pyrano[3,4-b]pyrrolo[3′,2′:5,6]pyrido[3,2-e][1,4]oxazin-5(5aH)-yl)benzamide] |

| Structure (SMILES) | IC50 |
| --- | --- |
| COc1cc(CN2CCN(C3CC4(CCN(c5ccc(C(=O)NS(=O)(=O)c6cc7c(c([N+](=O)[O-])c6)N[C@H](C6CCOCC6)CO7)c(N6c7cc8cc[nH]c8nc7O[C@H]7COCC[C@@H]76)c5)CC4)C3)[C@H](c3ccccc3OC(C)C)C2)cnc1OC [Example 177, 4-(2-((R)-4-((5,6-dimethoxypyridin-3-yl)methyl)-2-(2-isopropoxyphenyl)piperazin-1-yl)-7-azaspiro[3.5]nonan-7-yl)-N-(((R)-5-nitro-3-(tetrahydro-2H-pyran-4-yl)-3,4-dihydro-2H-benzo[b][1,4]oxazin-7-yl)sulfonyl)-2-((5aS,9aR)-6,7,9,9a-tetrahydro-1H-pyrano[3,4-b]pyrrolo[3′,2′:5,6]pyrido[3,2-e][1,4]oxazin-5(5aH)-yl)benzamide] | 4 nM |

Same assay, conditions: cellular anti-proliferative IC50, about 72 hours, medium with 10% FBS, ATPlite; read-out: RS411-G101V IC50

| Structure (SMILES) | IC50 |
| --- | --- |
| COc1cc(CN2CCN(C3CC4(CCN(c5ccc(C(=O)NS(=O)(=O)c6ccc(NC[C@H]7CC[C@](C)(O)CC7)c([N+](=O)[O-])c6)c(N6c7cc8cc[nH]c8nc7O[C@H]7COCC[C@@H]76)c5)CC4)C3)[C@@H](c3ccccc3OC(C)C)C2)ccc1C1CC1 [Example 157, 4-(2-((S)-4-(4-cyclopropyl-3-methoxybenzyl)-2-(2-isopropoxyphenyl)piperazin-1-yl)-7-azaspiro[3.5]nonan-7-yl)-N-((4-((((1r,4r)-4-hydroxy-4-methylcyclohexyl)methyl)amino)-3-nitrophenyl)sulfonyl)-2-((5aS,9aR)-6,7,9,9a-tetrahydro-1H-pyrano[3,4-b]pyrrolo[3′,2′:5,6]pyrido[3,2-e][1,4]oxazin-5(5aH)-yl)benzamide] | 31.8 nM |
| Cc1cc2c(CN3CCN(C4CC5(CCN(c6ccc(C(=O)NS(=O)(=O)c7ccc(NCC8CCC(C)(O)CC8)c([N+](=O)[O-])c7)c(N7c8cc9cc[nH]c9nc8O[C@H]8COCC[C@@H]87)c6)CC5)C4)[C@H](c4ccccc4C)C3)cnc(N3CCOCC3)c2o1 (stereo partly drawn) [Example 146, 2-[(3R,8S)-2,5-dioxa-9,15,17-triazatetracyclo[8.7.0.0^{3,8}.0^{12,16}]heptadeca-1(10),11,13,16-tetraen-9-yl]-4-{2-[(2R)-4-{[2-methyl-7-(morpholin-4-yl)furo[2,3-c]pyridin-4-yl]methyl}-2-(2-methylphenyl)piperazin-1-yl]-7-azaspiro[3.5]nonan-7-yl}-N-[3-nitro-4-({[(1r,4r)-4-hydroxy-4-methylcyclohexyl]methyl}amino)benzenesulfonyl]benzamide] | 8.2 nM |
| CC(C)Oc1ccccc1[C@@H]1CN(Cc2ccc(N3CCOC[C@@H]3C)nc2)CCN1C1CC2(CCN(c3ccc(C(=O)NS(=O)(=O)c4cc5c(c([N+](=O)[O-])c4)N[C@H](C4CCOCC4)CO5)c(N4c5cc6cc[nH]c6nc5O[C@H]5COCC[C@@H]54)c3)CC2)C1 [Example 260, 2-[(3R,8S)-2,5-dioxa-9,15,17-triazatetracyclo[8.7.0.0^{3,8}.0^{12,16}]heptadeca-1(10),11,13,16-tetraen-9-yl]-4-{2-[(2R)-2-(2-isopropoxyphenyl)-4-({6-[(3S)-3-methylmorpholin-4-yl]pyridin-3-yl}methyl)piperazin-1-yl]-7-azaspiro[3.5]nonan-7-yl}-N-[(3R)-5-nitro-3-(oxan-4-yl)-3,4-dihydro-2H-1,4-benzoxazin-7-ylsulfonyl]benzamide] | 8.65 nM |
| CC(C)Oc1ccccc1[C@H]1CN(Cc2ccnc3c2OCC(C)(C)O3)CCN1C1CC2(CCN(c3ccc(C(=O)NS(=O)(=O)c4ccc(NCC5CCC(C)(O)CC5)c([N+](=O)[O-])c4)c(N4c5cc6cc[nH]c6nc5O[C@H]5COCC[C@@H]54)c3)CC2)C1 (stereo partly drawn) [Example 127, 4-(2-((S)-4-((3,3-dimethyl-2,3-dihydro-[1,4]dioxino[2,3-b]pyridin-8-yl)methyl)-2-(2-isopropoxyphenyl)piperazin-1-yl)-7-azaspiro[3.5]nonan-7-yl)-N-((4-((((1r,4r)-4-hydroxy-4-methylcyclohexyl)methyl)amino)-3-nitrophenyl)sulfonyl)-2-((5aS,9aR)-6,7,9,9a-tetrahydro-1H-pyrano[3,4-b]pyrrolo[3′,2′:5,6]pyrido[3,2-e][1,4]oxazin-5(5aH)-yl)benzamide] | 8.1 nM |
| COc1cc(CN2CCN(C3CC4(CCN(c5ccc(C(=O)NS(=O)(=O)c6cc7c(c([N+](=O)[O-])c6)N[C@@H](C6CCC(C)(O)CC6)CO7)c(N6c7cc8cc[nH]c8nc7O[C@H]7COCC[C@@H]76)c5)CC4)C3)[C@@H](c3ccccc3OC(C)C)C2)cnc1N1CCOCC1 (stereo partly drawn) [Example 130, 2-[(3R,8S)-2,5-dioxa-9,15,17-triazatetracyclo[8.7.0.0^{3,8}.0^{12,16}]heptadeca-1(10),11,13,16-tetraen-9-yl]-4-{2-[(2S)-2-(2-isopropoxyphenyl)-4-{[5-methoxy-6-(morpholin-4-yl)pyridin-3-yl]methyl}piperazin-1-yl]-7-azaspiro[3.5]nonan-7-yl}-N-[(3S)-5-nitro-3-[(1r,4S)-4-hydroxy-4-methylcyclohexyl]-3,4-dihydro-2H-1,4-benzoxazin-7-ylsulfonyl]benzamide] | 13.1 nM |
| COc1ncc(CN2CCN(C3CC4(CCN(c5ccc(C(=O)NS(=O)(=O)c6ccc(NCC7CCC(C)(O)CC7)c([N+](=O)[O-])c6)c(N6c7cc8cc[nH]c8nc7O[C@H]7COCC[C@@H]76)c5)CC4)C3)[C@@H](c3ccccc3OC(C)C)C2)cc1C (stereo partly drawn) [Example 158, N-((4-((((1r,4r)-4-hydroxy-4-methylcyclohexyl)methyl)amino)-3-nitrophenyl)sulfonyl)-4-(2-((S)-2-(2-isopropoxyphenyl)-4-((6-methoxy-5-methylpyridin-3-yl)methyl)piperazin-1-yl)-7-azaspiro[3.5]nonan-7-yl)-2-((5aS,9aR)-6,7,9,9a-tetrahydro-1H-pyrano[3,4-b]pyrrolo[3′,2′:5,6]pyrido[3,2-e][1,4]oxazin-5(5aH)-yl)benzamide] | 21.2 nM |
| Cc1ccccc1[C@@H]1CN(Cc2cnc(N3CCOCC3)c3c2C(C)(C)CCO3)CCN1C1CC2(CCN(c3ccc(C(=O)NS(=O)(=O)c4cc5c(c([N+](=O)[O-])c4)N[C@H](C4CCOCC4)CO5)c(N4c5cc6cc[nH]c6nc5O[C@H]5COCC[C@@H]54)c3)CC2)C1 [Example 192, 4-{2-[(2R)-4-{[4,4-dimethyl-8-(morpholin-4-yl)-2H,3H-pyrano[2,3-c]pyridin-5-yl]methyl}-2-(2-methylphenyl)piperazin-1-yl]-7-azaspiro[3.5]nonan-7-yl}-2-[(3R,8S)-2,5-dioxa-9,15,17-triazatetracyclo[8.7.0.0^{3,8}.0^{12,16}]heptadeca-1(10),11,13,16-tetraen-9-yl]-N-[(3R)-5-nitro-3-(oxan-4-yl)-3,4-dihydro-2H-1,4-benzoxazin-7-ylsulfonyl]benzamide] | 2.41 nM |
| CC(C)Oc1ccccc1[C@H]1CN(C2CCC(C)(O)CC2)CCN1C1CC2(CCN(c3ccc(C(=O)NS(=O)(=O)c4ccc(NCC5CCC(C)(O)CC5)c([N+](=O)[O-])c4)c(N4c5cc6cc[nH]c6nc5O[C@H]5COCC[C@@H]54)c3)CC2)C1 (stereo partly drawn) [Example 109, 2-[(3R,8S)-2,5-dioxa-9,15,17-triazatetracyclo[8.7.0.0^{3,8}.0^{12,16}]heptadeca-1(10),11,13,16-tetraen-9-yl]-4-{2-[(2S)-2-(2-isopropoxyphenyl)-4-[(1s,4s)-4-hydroxy-4-methylcyclohexyl]piperazin-1-yl]-7-azaspiro[3.5]nonan-7-yl}-N-[3-nitro-4-({[(1r,4r)-4-hydroxy-4-methylcyclohexyl]methyl}amino)benzenesulfonyl]benzamide] | 17.2 nM |
| Cc1ccccc1[C@@H]1CN(Cc2cnc(N3CCOC[C@@H]3C)c(C)c2)CCN1C1CC2(CCN(c3ccc(C(=O)NS(=O)(=O)c4cc5c(c([N+](=O)[O-])c4)N[C@H](C4CCOCC4)CO5)c(N4c5cc6cc[nH]c6nc5O[C@H]5COCC[C@@H]54)c3)CC2)C1 [Example 205, 2-[(3R,8S)-2,5-dioxa-9,15,17-triazatetracyclo[8.7.0.0^{3,8}.0^{12,16}]heptadeca-1(10),11,13,16-tetraen-9-yl]-4-{2-[(2R)-4-({5-methyl-6-[(3S)-3-methylmorpholin-4-yl]pyridin-3-yl}methyl)-2-(2-methylphenyl)piperazin-1-yl]-7-azaspiro[3.5]nonan-7-yl}-N-[(3R)-5-nitro-3-(oxan-4-yl)-3,4-dihydro-2H-1,4-benzoxazin-7-ylsulfonyl]benzamide] | 21.3 nM |
